Measured values from patent US5607926A, “Cephalosporin antibiotics” (Microcide Pharmaceuticals, Inc., priority 1995, dated 1997).
In brackets after ≈: the same amount, converted by molar mass. Counter-ions that a name gives are not always drawn. Like-named read-outs stand apart in the source and are kept apart here.

Assays:
Format in all cases: cell-based
P. aeruginosa ATCC 27853 = assay: In vitro antibacterial evaluation, MIC by agar dilution, P. aeruginosa ATCC 27853; details: Pseudomonas aeruginosa, ATCC27853, read-out: MIC
Description: (§1) The compounds of the invention were evaluated against several β-lactamresistant bacteria strains by determining the minimum inhibitory concentration (MIC, μg/ml) of each compound with respect to each strain. The MIC, the lowest concentration of antibiotic which inhibits growth of the test organism, was determined by the agar dilution method.
(§2) To determine the MIC for bacterial isolates, the test compound was incorporated in a series of two-fold dilutions into liquified Mueller-Hinton agar. Upon solidification, a number of different bacterial strains were spot inoculated with a replicating device onto the agar surface. […] The procedures used in these studies have been standardized by the National Committee for Clinical Laboratory Standards (NCCLS), as per the NCCLS publication entitled METHODS FOR DILUTION ANTIMICROBIAL SUSCEPTIBILITY TESTS (1991), which is incorporated herein by reference.
(§3) Aliquots of antimicrobial agents were prepared in phosphate buffered saline (PBS) at pH 7.2. Tween 20 or DMSO was used as a solubilizing vehicle as needed. Standard methods of vortexing, sonicating and gentle heat were used to facilitate solubilizing the test agent. Typically, the concentration of the stock solution was 10× that of the highest drug concentration tested. A 1.28 mg/mL stock solution was used with a subsequent highest working concentration of 128 μg/mL. Serial two-fold dilutions were done through ≤0.25 μg/mL. Each drug level was tested in duplicate. Two-fold drug dilutions were done in sterile 50 mL tubes with a final drug volume of 5 mL. Upon the addition of 45 mL of molten agar, a 10-fold dilution resulted. Two, 25 mL. plates were then poured into 15×150 mm square Petri plates with grids and allowed to harden.
(§4) A control plate with a reference drug, either cefotaxime, vancomycin or imipenem, was used as the positive growth control. Stock concentrations of reference antibiotics were prepared and frozen at -80° C. Upon preparation, the control plates were sealed and stored in the refrigerator for up to 1 week prior to use; however, imipenem control plates had to be prepared just prior to use. All test plates were used within 24 hours of preparation.
(§5) Satisfactory results were obtained where the inoculum contained about 10^4 colony forming units (cfu) ±0.5 logs. Starting with pure cultures of the test isolates on agar plates, a few isolated colonies were transferred to a tube of nutrient broth and allowed to grow 4-6 hours at 35°-36° C. to reach log-phase growth. Dropwise addition of the broth culture to PBS was done to match a 0.5 McFarland turbidity standard equal to 10^8 cfu/mL. This was further diluted ten-fold in PBS to reach a working inoculum concentration of 10^7 cfu/mL. When 1 μL of the working inoculum was applied to the agar surface a concentration of about 10^4 cfu per spot was obtained.
(§6) Disposable sterile 1 μL loops were used to inoculate test plates, with each isolate in a designated grid on the agar plate. An alternate method of inoculation involved the use of a replica plater, a device with 48 steel pins allowing the simultaneous inoculation of multiple isolates. After the spots had dried, the plates were incubated at 35°-36° C. for 16-20 hours. Endpoints were assessed as the minimum inhibitory concentration (MIC) of antimicrobial agent.

S. aureus ATCC 29213 = assay: In vitro antibacterial evaluation, MIC by agar dilution, S. aureus ATCC 29213; details: Staphylococcus aureus, ATCC29213
Description: as §1, §2, §3, §4, §5, §6

[1] = test system: S. aureus 76 (Meth^R)(lac^+); assay: In vitro antibacterial evaluation, MIC by agar dilution, S. aureus 76; details: Staphylococcus aureus, read-out: MIC
Description: as §1, §2, §3, §4, §5, §6

E. faecium ATCC 35667 = assay: In vitro antibacterial evaluation, MIC by agar dilution, E. faecium ATCC 35667; details: Enterococcus faecium, ATCC35667, read-out: MIC
Description: as §1, §2, §3, §4, §5, §6

[2] = test system: S. aureus Col8A (Meth^S)(lac^-); assay: In vitro antibacterial evaluation, MIC by agar dilution, S. aureus Col8A; details: Staphylococcus aureus
Description: as §1, §2, §3, §4, §5, §6
The novel agents of this invention are notable for their enhanced activity against S. aureus Col and Enterococci (E. faecium and E. faecalis). The S. aureus Col strain is a high-level PBP2a producer, whereas S. aureus Col 8A, its isogenic partner, lacks PBP2a. […] Thus, the compounds of the present invention are effective against PBP2a-producing bacteria.

E. faecalis ATCC 29212 = assay: In vitro antibacterial evaluation, MIC by agar dilution, E. faecalis ATCC 29212; details: Enterococcus faecalis, ATCC29212; E. faecalis ATCC 29212; read-out: MIC
Description: as §1, §2, §3, §4, §5, §6

S. haemolyticus (Meth^R) = assay: In vitro antibacterial evaluation, MIC by agar dilution, S. haemolyticus; details: Staphylococcus haemolyticus, read-out: MIC
Description: as §1, §2, §3, §4, §5, §6

E. coli ATCC 25922 = assay: In vitro antibacterial evaluation, MIC by agar dilution, E. coli ATCC 25922; details: Escherichia coli, ATCC25922, read-out: MIC
Description: as §1, §2, §3, §4, §5, §6

[3] = test system: S. epidermidis ATCC 31432; assay: In vitro antibacterial evaluation, MIC by agar dilution, S. epidermidis ATCC 31432; details: Staphylococcus epidermidis, ATCC31432; S. epidermidis ATCC 31432; read-out: MIC
Description: as §1, §2, §3, §4, §5, §6

[4] = S. aureus ATCC 29213, read-out: MIC

Row | MIC [3] [µg/mL] | Compound | MIC (P. aeruginosa ATCC 27853) [µg/mL] | MIC (S. aureus ATCC 29213) [µg/mL] | MIC [1] [µg/mL] | MIC (E. faecium ATCC 35667) [µg/mL] | MIC [2] [µg/mL] | MIC (E. faecalis ATCC 29212) [µg/mL] | MIC (S. haemolyticus (Meth^R)) [µg/mL] | MIC (E. coli ATCC 25922) [µg/mL] | MIC (S. aureus ATCC 29213; [4]) [µg/mL]
1 |  | O=C(Cc1ccccc1)N[C@@H]1C(=O)N2C(C(=O)O)=C(Sc3ccnn3-c3ccccn3)CS[C@H]12 [Cmpd 105, (7R)-7-[(Phenylacetyl)amino]-3-(1-N-(pyridin-2-yl)pyrazol-5-ylthio)-3-cephem-4-carboxylic acid] | > 32 | 0.25 (≈ 0.507 µM) | 16 (≈ 32.4 µM) | 2 (≈ 4.05 µM) | 0.25 (≈ 0.507 µM) | 1 (≈ 2.03 µM) | 32 (≈ 64.8 µM) | > 32 | 
2 |  | CCCCCC(=O)N[C@@H]1C(=O)N2C(C(=O)O)=C(Sc3ccnn3-c3ccccc3)CS[C@H]12 [Cmpd 109, (7R)-7-[(hexanoyl)amino]-3-(1-N-phenylpyrazol-5-ylthio)-3-cephem-4-carboxylic acid] | > 32 | 0.125 (≈ 0.264 µM) | 16 (≈ 33.9 µM) | 4 (≈ 8.46 µM) | 0.125 (≈ 0.264 µM) | 4 (≈ 8.46 µM) | 32 (≈ 67.7 µM) | > 32 | 
3 | < 0.5 | O=C(Cc1ccccc1)N[C@@H]1C(=O)N2C(C(=O)O)=C(Sc3cc(Cl)ccc3Cl)CS[C@H]12 [Cmpd 16, (7R)-7-[(Phenylacetyl)amino]-3-(2,5-dichlorophenylthio)-3-cephem-4-carboxylic acid] |  |  | 4 (≈ 8.07 µM) | 4 (≈ 8.07 µM) |  |  | 16 (≈ 32.3 µM) | > 16 | 
4 |  | Nc1nc(/C(=N/OC2CCCC2)C(=O)N[C@@H]2C(=O)N3C(C(=O)O)=C(Sc4cccnc4-c4ccccc4)CS[C@H]23)cs1 [Cmpd 86, (7R)-7-[(Z)-2-(aminothiazol-4-yl)-2-(cyclopentyloxyimino)acetamido]-3-(2-phenylpyridin-3-ylthio)-3-cephem-4-carboxylic acid] | 32 (≈ 51.4 µM) |  | 16 (≈ 25.7 µM) | 2 (≈ 3.21 µM) | 1 (≈ 1.61 µM) | 4 (≈ 6.42 µM) | 16 (≈ 25.7 µM) | 2 (≈ 3.21 µM) | 1 (≈ 1.61 µM)
5 |  | N=C(N)SCc1cccc(SC2=C(C(=O)O)N3C(=O)[C@@H](NC(=O)Cc4ccccc4)[C@H]3SC2)c1 [Cmpd 80, (7R)-7-[(Phenylacetyl)amino]-3-(3-isothiouroniummethylphenylthio)-3-cephem-4-carboxylate, inner salt] | > 32 |  | 8 | 2 | < 0.06 | 1 | 8 | 16 | < 0.06
6 |  | N=C(N)SCc1ccccc1SC1=C(C(=O)O)N2C(=O)[C@@H](NC(=O)Cc3ccc(CN)cc3)[C@H]2SC1 [Cmpd 124, (7R)-7-[((4-aminomethylphenyl)acetyl)amino]-3-(2-isothiouroniummethylphenylthio)-3-cephem-4-carboxylate, trifluoroacetic acid salt] | > 32 | 0.25 | 16 | 1 | 0.25 | 1 | 16 | > 32 | 
7 |  | Nc1nnc(SCC(=O)N[C@@H]2C(=O)N3C(C(=O)O)=C(Sc4ccnn4-c4ccccc4)CS[C@H]23)s1 [Cmpd 120] | > 32 | 0.25 (≈ 0.456 µM) | 16 (≈ 29.2 µM) | 8 (≈ 14.6 µM) | 0.25 (≈ 0.456 µM) | 4 (≈ 7.3 µM) | 32 (≈ 58.4 µM) | > 32 | 
8 |  | O=C(O)C1=C(Sc2ccnn2-c2ccccc2)CS[C@@H]2[C@H](NC(=O)C(=NO)c3ccco3)C(=O)N12 [Cmpd 121, (7R)-7-[2-(2-furyl)-2-(hydroxyimino)acetamido]-3-(1-N-phenylpyrazol-5-ylthio)-3-cephem-4-carboxylic acid] | > 32 |  | 8 (≈ 15.6 µM) | 2 (≈ 3.91 µM) | 0.5 (≈ 0.977 µM) | 0.5 to 1 (≈ 0.977 to 1.95 µM) | 16 (≈ 31.3 µM) | > 32 | 0.5 (≈ 0.977 µM)
9 |  | O=C(Cc1ccccc1)N[C@@H]1C(=O)N2C(C(=O)O)=C(Sc3ccnn3-c3ccc(F)cc3)CS[C@H]12 [Cmpd 123, (7R)-7-[(Phenylacetyl)amino]-3-(1-N-(4-fluorophenyl)pyrazol-5-ylthio)-3-cephem-4-carboxylic acid] | > 32 |  | 8 (≈ 15.7 µM) | 4 (≈ 7.83 µM) | ≤ 0.06 | 2 (≈ 3.92 µM) | 16 (≈ 31.3 µM) | > 32 | 0.06 (≈ 0.118 µM)
10 |  | CC(=O)NC(=N)SCc1ccccc1SC1=C(C(=O)O)N2C(=O)[C@@H](NC(=O)Cc3ccccc3)[C@H]2SC1 [Cmpd 78, (7R)-7-[(Phenylacetyl)amino]-3-(2-N-acetylamidinothiomethylphenylthio)-3-cephem-4-carboxylic acid] | > 32 | 0.25 (≈ 0.449 µM) | 16 (≈ 28.7 µM) | 4 (≈ 7.19 µM) | 0.25 (≈ 0.449 µM) | 4 (≈ 7.19 µM) | > 32 | > 32 | 
11 |  | CSCC(=O)N[C@@H]1C(=O)N2C(C(=O)O)=C(Sc3ccccc3CSC(=N)NN)CS[C@H]12 [Cmpd 133, (7R)-7-[(methylthioacetyl)amino]-3-(2-(N-amino)isothiouroniummethylphenylthio)-3-cephem-4-carboxylate, inner salt] | > 32 | 0.125 | 8 | 1 | 0.125 | 1 | 16 | > 32 | 
12 |  | O=C(Cc1ccco1)N[C@@H]1C(=O)N2C(C(=O)O)=C(Sc3ccnn3-c3ccccc3)CS[C@H]12 [Cmpd 111, (7R)-7-[(2-furylacetyl)amino]-3-(1-N-phenylpyrazol-5-ylthio)-3-cephem-4-carboxylic acid] | > 32 |  | 16 (≈ 33.2 µM) | 4 (≈ 8.29 µM) | 0.25 (≈ 0.518 µM) | 4 (≈ 8.29 µM) | 32 (≈ 66.3 µM) | > 32 | 0.5 (≈ 1.04 µM)
13 |  | CSCC(=O)N[C@@H]1C(=O)N2C(C(=O)O)=C(Sc3ccccc3CNC(=N)N)CS[C@H]12 [Cmpd 135, (7R)-7-[(Methylthioacetyl)amino]-3-(2-guanidiniummethylphenylthio)-3-cephem-4-carboxylate, inner salt] | > 32 |  | 16 | 2 to 4 | ≤ 0.06 | 2 to 4 | 32 | > 32 | 0.125
14 |  | O=C(Cc1cccs1)N[C@@H]1C(=O)N2C(C(=O)O)=C(Sc3ccnn3-c3ccccc3)CS[C@H]12 [Cmpd 116, (7R)-7-[(2-thienylacetyl)amino]-3-(1-N-phenylpyrazol-5-ylthio)-3-cephem-4-carboxylic acid] | > 32 |  | 16 (≈ 32.1 µM) | 2 (≈ 4.01 µM) | 0.125 (≈ 0.251 µM) | 2 (≈ 4.01 µM) | 16 (≈ 32.1 µM) | > 32 | 0.25 (≈ 0.501 µM)
15 |  | N#Cc1ccccc1SC1=C(C(=O)O)N2C(=O)[C@@H](NC(=O)/C(=N\OC3CCCC3)c3csc(N)n3)[C@H]2SC1 [Cmpd 53, (7R)-7-[(Z)-2-(aminothiazol-4-yl)-2-(cyclopentyloxyimino)acetamido]-3-(2-cyanophenylthio)-3-cephem-4-carboxylic acid] | 8 (≈ 14 µM) |  | 8 (≈ 14 µM) | 8 (≈ 14 µM) | 1 (≈ 1.75 µM) | 8 (≈ 14 µM) | 8 (≈ 14 µM) | 1 (≈ 1.75 µM) | 1 (≈ 1.75 µM)
